Earlier results on one compound are cited in US10399946B2, “Solid forms of an S-Nitrosoglutathione reductase inhibitor” (Alpine Immune Sciences, Inc., priority 2015, dated 2019).

In data set [1] the target is S-nitrosoglutathione reductase (GSNOR) (Homo sapiens, UniProt P11766). As to conditions: variety of assays and therapeutic models.
The conditions of data set [2]: described in WO2012/048181, US 62/061,557, 62/093,712, 62/138,792, 62/209,724, WO 2016/057811.

S-nitrosoglutathione reductase (GSNOR), sequence (P11766 whole entry): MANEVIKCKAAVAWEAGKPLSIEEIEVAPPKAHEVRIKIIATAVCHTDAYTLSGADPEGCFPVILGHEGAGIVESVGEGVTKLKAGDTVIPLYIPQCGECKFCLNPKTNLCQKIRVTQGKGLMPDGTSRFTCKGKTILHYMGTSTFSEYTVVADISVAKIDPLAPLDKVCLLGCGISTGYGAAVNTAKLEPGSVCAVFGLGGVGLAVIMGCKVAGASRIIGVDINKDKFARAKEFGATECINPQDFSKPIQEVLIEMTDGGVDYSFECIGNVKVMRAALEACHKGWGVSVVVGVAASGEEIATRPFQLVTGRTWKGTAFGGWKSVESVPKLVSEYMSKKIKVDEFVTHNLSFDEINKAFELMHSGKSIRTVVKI

In the case of `O=C(O)c1ccc(-c2ccc3cc(O)ccc3n2)c(Cl)c1` [Compound 1, 3-chloro-4-(6-hydroxyquinolin-2-yl)benzoic acid], in data set [1], the “inhibition of S-nitrosoglutathione reductase (GSNOR)” value was “selective and reversible inhibition”. Moreover, the “efficacy in asthma, COPD, cystic fibrosis, and IBD models” value in data set [2] was “demonstrates efficacy”.
